Measurements from ChEMBL document CHEMBL1130448, “CETP inhibitory activity of ceramides, isolated from the gorgonian Acabaria Undulata” (Bioorg Med Chem Lett, 1997).
pIC50: −log10 of the molar value.

Target: T1, Cholesteryl ester transfer protein (Homo sapiens, UniProt P11597)
T1 sequence (P11597 whole entry): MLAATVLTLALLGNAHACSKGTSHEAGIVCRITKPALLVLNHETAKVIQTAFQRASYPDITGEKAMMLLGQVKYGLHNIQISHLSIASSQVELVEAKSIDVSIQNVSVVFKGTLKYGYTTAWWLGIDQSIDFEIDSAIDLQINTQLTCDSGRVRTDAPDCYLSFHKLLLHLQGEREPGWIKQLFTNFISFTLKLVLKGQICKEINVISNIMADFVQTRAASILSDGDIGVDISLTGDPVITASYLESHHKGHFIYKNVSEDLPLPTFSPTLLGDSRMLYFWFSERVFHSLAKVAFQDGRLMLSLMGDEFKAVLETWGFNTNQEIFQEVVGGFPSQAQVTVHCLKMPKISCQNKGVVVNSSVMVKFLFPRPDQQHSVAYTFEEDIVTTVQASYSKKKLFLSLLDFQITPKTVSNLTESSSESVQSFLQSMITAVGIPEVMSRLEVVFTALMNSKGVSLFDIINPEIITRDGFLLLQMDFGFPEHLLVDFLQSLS
Experiment: Compound was measured for its inhibitory activity against cholesteryl ester transfer protein (CETP)

pIC50 | SMILES
4.71 | CCCCCCCCCCCCC/C=C/C(O)C(N)CO[C@H]1O[C@H](CO)[C@H](O)[C@H](O)[C@H]1O (stereo not given in full)
4.60 | CC(C)CNC(=O)/C=C/[C@@H]1C[C@H]1[C@@H]1C[C@H]1[C@@H]1C[C@H]1[C@@H]1C[C@H]1[C@@H]1C[C@H]1/C=C/[C@@H]1C[C@H]1C
4.06 | CCCCCCCCCCCCCCCC(=O)N[C@@H](CO)[C@H](O)/C=C/CC/C=C/CCCCCCCC(C)C
5.20 | CCCCCCCCCCCCC/C=C/C(O)C(CO)N(C)C (stereo not given)
4.18 | CCCCCCCCCCCCC/C=C/[C@@H](O)[C@H](CO)NC(=O)CCCCCCCCCCCCCCC
4.33 | CCCCCCCCC/C=C/CC/C=C/[C@@H](O)[C@H](CO)NC(=O)CCCCCCCCCCCCCCC
4.24 | CCCCCCC/C=C/C=C/CC/C=C/[C@@H](O)[C@H](CO)NC(=O)CCCCCCCCCCCCCCC
4.89 | CCCCCCCCCCCCCCC[C@@H](O)[C@@H](N)CO (racemic) [DIHYDROSPINGOSINE]
4.94 | CCCCCCCCCCCCC/C=C/[C@@H](O)[C@@H](N)CO [SPHINGOSINE]

SMILES | pIC50
CCCCCCCCCCCCC/C=C/[C@@H](O)[C@@H](N)COP(=O)([O-])OCC[N+](C)(C)C [SPHINGOSYLPHOSPHORYLCHLOLINE] | 3.80
